Data taken from BindingDB's records for doi:10.1021/jm950721m (Warner-Lambert, 1996).

What was measured:
[1] = Compound was evaluated for effective concentration […] for Dopamine receptor D2 mitogenesis. (95% confidence intervals)
[2] = Binding affinity to rat Dopamine receptor D3 expressed in CHO cells was determined using [125 I] iodosulpride as radioligand

Row | SMILES | EC50 [1] [nM] | Ki [2] [nM]
1 | Nc1cccc(C#CCCN2CC=C(c3ccccc3)CC2)c1 [3-[4-(4-Phenyl-3,6-dihydro-2H-pyridin-1-yl)-but-1-ynyl]-phenylamine] | 9.8 | 0.36
2 | Nc1ccc(C#CCCN2CC=C(c3ccccc3)CC2)cc1 [4-[4-(4-Phenyl-3,6-dihydro-2H-pyridin-1-yl)-but-1-ynyl]-phenylamine] | 0.5 | –
